Literature values, collected in PubChem BioAssay AID1259409 (Chemical Carcinogenesis Research Information System (CCRIS), 2018).

System: rodent chemically induced tumor inhibition, incidence and multiplicity
Test: CCRIS tumor inhibitor studies
Conditions: Route [Inhibitor]: ORAL

For `O=C1O[C@H]([C@@H](O)CO)C(O)=C1O`, the “tumour outcome (control, treated, inhibition, significance)” value (Carcinogen: 1,2-DIMETHYLHYDRAZINE, 540-73-8, Dose [Inhibitor]: 0.3% IN DRINKING WATER BEGINNING POST LAST CARCINOGEN DOSE AND CONTINUING FOR DURATION OF STUDY (STUDY DURATION: 55 WK), Species: MOUSE, Strain/Sex: CBA/FEMALE, Target Tissue: Type of Lesion: UTERUS (ENDOMETRIUM): STROMAL SARCOMA, Dose [Carcinogen]: 8 MG/KG BW IN WATER 1/WK FOR 8 WK, Promoter: ESTRADIOL PROPIONATE, 113-38-2) is given as 13/40 (33%), 3/40 (8%), 77%, not calculated, the “tumour outcome (control, treated, inhibition, significance)” value (Carcinogen: 1,2-DIMETHYLHYDRAZINE, 540-73-8, Dose [Inhibitor]: 1% IN 20% FAT DIET DAILY STARTING 2 WK BEFORE CARCINOGEN TREATMENT AND CONTINUING FOR DURATION OF STUDY (STUDY DURATION:, Species: RAT, Strain/Sex: F344/FEMALE, Target Tissue: Type of Lesion: COLON: ADENOMA, ADENOCARCINOMA, Dose [Carcinogen]: 150 MG/KG BW IN 0.9% SALINE ADJUSTED TO PH 6.8 ONCE, Promoter: NONE USED) is given as 26%, 0%, 100%, p<0.05 and the “tumour outcome (control, treated, inhibition, significance)” value (Carcinogen: 1,2-DIMETHYLHYDRAZINE, 540-73-8, Dose [Inhibitor]: 1% IN 20% FAT DIET DAILY STARTING 2 WK BEFORE CARCINOGEN TREATMENT AND CONTINUING FOR DURATION OF STUDY (STUDY DURATION:, Species: RAT, Strain/Sex: F344/FEMALE, Target Tissue: Type of Lesion: KIDNEY: NEPHROBLASTOMA, ADENOCARCINOMA, Dose [Carcinogen]: 150 MG/KG BW IN 0.9% SALINE ADJUSTED TO PH 6.8 ONCE, Promoter: NONE USED) is given as 22%, 0%, 100%, p<0.05. The “tumour outcome (control, treated, inhibition, significance)” value (Carcinogen: 1,2-DIMETHYLHYDRAZINE, 540-73-8, Dose [Inhibitor]: 1% IN 20% FAT DIET DAILY STARTING 2 WK BEFORE START OF CARCINOGEN TREATMENT AND CONTINUING FOR DURATION OF STUDY (STUDY, Species: RAT, Strain/Sex: F344/FEMALE, Target Tissue: Type of Lesion: COLON: ADENOCARCINOMA, Dose [Carcinogen]: 20 MG/KG BW IN 0.9% SALINE 1/WK FOR 10 WK, Promoter: NONE USED) was 33%, 39%, -18%, not significant, the “tumour outcome (control, treated, inhibition, significance)” value (Carcinogen: 1,2-DIMETHYLHYDRAZINE, 540-73-8, Dose [Inhibitor]: 1% IN 20% FAT DIET DAILY STARTING 2 WK BEFORE START OF CARCINOGEN TREATMENT AND CONTINUING FOR DURATION OF STUDY (STUDY, Species: RAT, Strain/Sex: F344/FEMALE, Target Tissue: Type of Lesion: COLON: ADENOMA, Dose [Carcinogen]: 20 MG/KG BW IN 0.9% SALINE 1/WK FOR 10 WK, Promoter: NONE USED) was 42%, 39%, 7%, not significant and the “tumour outcome (control, treated, inhibition, significance)” value (Carcinogen: 1,2-DIMETHYLHYDRAZINE, 540-73-8, Dose [Inhibitor]: 1% IN 20% FAT DIET DAILY STARTING 2 WK BEFORE START OF CARCINOGEN TREATMENT AND CONTINUING FOR DURATION OF STUDY (STUDY, Species: RAT, Strain/Sex: F344/FEMALE, Target Tissue: Type of Lesion: DUODENUM: ADENOCARCINOMA, ADENOMA, Dose [Carcinogen]: 20 MG/KG BW IN 0.9% SALINE 1/WK FOR 10 WK, Promoter: NONE USED) was 25%, 26%, -4%, not significant. The “tumour outcome (control, treated, inhibition, significance)” value (Carcinogen: 1,2-DIMETHYLHYDRAZINE, 540-73-8, Dose [Inhibitor]: 1% IN 20% FAT DIET DAILY STARTING 2 WK BEFORE START OF CARCINOGEN TREATMENT AND CONTINUING FOR DURATION OF STUDY (STUDY, Species: RAT, Strain/Sex: F344/FEMALE, Target Tissue: Type of Lesion: EAR DUCT: SQUAMOUS CELL CARCINOMA, Dose [Carcinogen]: 20 MG/KG BW IN 0.9% SALINE 1/WK FOR 10 WK, Promoter: NONE USED) was 13%, 13%, 0%, not significant, the “tumour outcome (control, treated, inhibition, significance)” value (Carcinogen: 1,2-DIMETHYLHYDRAZINE, 540-73-8, Dose [Inhibitor]: 1% IN 20% FAT DIET DAILY STARTING 2 WK BEFORE START OF CARCINOGEN TREATMENT AND CONTINUING FOR DURATION OF STUDY (STUDY, Species: RAT, Strain/Sex: F344/FEMALE, Target Tissue: Type of Lesion: KIDNEY: NEPHROBLASTOMA, ADENOCARCINOMA, Dose [Carcinogen]: 20 MG/KG BW IN 0.9% SALINE 1/WK FOR 10 WK, Promoter: NONE USED) was 13%, 18%, -38%, not significant and the “tumour outcome (control, treated, inhibition, significance)” value (Carcinogen: 1,2-DIMETHYLHYDRAZINE, 540-73-8, Dose [Inhibitor]: 1.2% IN DIET DAILY STARTING 2 WK PRIOR TO CARCINOGEN TREATMENT AND CONTINUING FOR DURATION OF STUDY (STUDY DURATION: 28, Species: RAT, Strain/Sex: SPRAGUE-DAWLEY/MALE, Target Tissue: Type of Lesion: COLON: ADENOCARCINOMA, Dose [Carcinogen]: 20 MG/KG BW IN BACTERIOSTATIC SALINE 1/WK FOR 20 WK, Promoter: NONE USED) was 64%, 38%, 41%, not calculated. For the same compound, the “tumour outcome (control, treated, inhibition, significance)” value (Carcinogen: 3-METHYLCHOLANTHRENE, 56-49-5, Dose [Inhibitor]: 0, 1.25% IN DRINKING WATER FOR DURATION OF STUDY BEGINNING 15 D PRIOR TO CARCINOGEN TREATMENT (STUDY DURATION: 150 D), Species: MOUSE, Strain/Sex: LACA/MALE, Target Tissue: Type of Lesion: GLANDULAR STOMACH: TUMOR, Dose [Carcinogen]: 2.2 MG (AVERAGE DOSE) ON COTTON THREADS IMPLANTED IN GLANDULAR STOMACH, Promoter: NONE USED) was 66%, 28%, 58%, p<0.02, the “tumour outcome (control, treated, inhibition, significance)” value (Carcinogen: 3-METHYLCHOLANTHRENE, 56-49-5, Dose [Inhibitor]: 0, 2 MG/ML IN DRINKING WATER FOR 6 WK BEGINNING ON FIRST DAY OF CARCINOGEN TREATMENT (STUDY DURATION: 16 WK), Species: MOUSE, Strain/Sex: SWISS/FEMALE, Target Tissue: Type of Lesion: CERVIX: SQUAMOUS CELL CARCINOMA, Dose [Carcinogen]: 600 UG IN BEESWAX IMPREGNATED COTTON THREAD FOR DURATION OF STUDY, Promoter: NONE USED) was 16/21 (76%), 5/15 (33%), 57%, p<0.02 and the “tumour outcome (control, treated, inhibition, significance)” value (Carcinogen: 3-METHYLCHOLANTHRENE, 56-49-5, Dose [Inhibitor]: 0, 2 MG/ML IN DRINKING WATER FOR 10 WK BEGINNING 6 WK AFTER FIRST DAY OF CARCINOGEN TREATMENT (STUDY DURATION: 16 WK), Species: MOUSE, Strain/Sex: SWISS/FEMALE, Target Tissue: Type of Lesion: CERVIX: SQUAMOUS CELL CARCINOMA, Dose [Carcinogen]: 600 UG IN BEESWAX IMPREGNATED COTTON THREAD FOR DURATION OF STUDY, Promoter: NONE USED) was 16/21 (76%), 8/12 (67%), 12%, not significant. The “tumour outcome (control, treated, inhibition, significance)” value (Carcinogen: 3-METHYLCHOLANTHRENE, 56-49-5, Dose [Inhibitor]: 0, 2 MG/ML IN DRINKING WATER FOR 16 WK (STUDY DURATION: 16 WK), Species: MOUSE, Strain/Sex: SWISS/FEMALE, Target Tissue: Type of Lesion: CERVIX: SQUAMOUS CELL CARCINOMA, Dose [Carcinogen]: 600 UG IN BEESWAX IMPREGNATED COTTON THREAD FOR DURATION OF STUDY, Promoter: NONE USED) was 16/21 (76%), 5/15 (33%), 57%, p<0.02 and the “tumour outcome (control, treated, inhibition, significance)” value (Carcinogen: 7,12-DIMETHYLBENZ[A]ANTHRACENE, 57-97-6, Dose [Inhibitor]: 0, 30 MG/ML IN DRINKING WATER FROM 40-90 D OF AGE THEN 0, 20 MG/ML FROM 90-180 D OF AGE AND 0, 10 MG/ML FROM 180-240 D O, Dose [Inhibitor]: 0, 30 MG/ML IN DRINKING WATER FROM 40-90 D OF AGE THEN 0, 20 MG/ML FROM 90-180 D OF AGE AND 0, 10 MG/ML FROM 180-240 D O, Species: RAT, Strain/Sex: SPRAGUE-DAWLEY/FEMALE, Target Tissue: Type of Lesion: MAMMARY GLAND: ADENOCARCINOMA, FIBROADENOMA, Dose [Carcinogen]: 5 MG IN 0.2 ML SESAME OIL 1/2 D FOR 12 D BEGINNING AT 50 D OF AGE, Promoter: NONE USED) was 100%, 57%, 43%, p<0.001.
